Test results from patent US10934274B2, “Quinoline derivatives as TAM RTK inhibitors” (Qurient Co., Ltd., priority 2015, dated 2021).

Columns and labels:
[1] = biological target: T1, Axl (Homo sapiens, UniProt P30530); assay: LanthaScreen Eu kinase binding assay, Axl; settings: Tracer 236
T1 construct: purchased Life Technologies
T1 sequence (P30530 26-894): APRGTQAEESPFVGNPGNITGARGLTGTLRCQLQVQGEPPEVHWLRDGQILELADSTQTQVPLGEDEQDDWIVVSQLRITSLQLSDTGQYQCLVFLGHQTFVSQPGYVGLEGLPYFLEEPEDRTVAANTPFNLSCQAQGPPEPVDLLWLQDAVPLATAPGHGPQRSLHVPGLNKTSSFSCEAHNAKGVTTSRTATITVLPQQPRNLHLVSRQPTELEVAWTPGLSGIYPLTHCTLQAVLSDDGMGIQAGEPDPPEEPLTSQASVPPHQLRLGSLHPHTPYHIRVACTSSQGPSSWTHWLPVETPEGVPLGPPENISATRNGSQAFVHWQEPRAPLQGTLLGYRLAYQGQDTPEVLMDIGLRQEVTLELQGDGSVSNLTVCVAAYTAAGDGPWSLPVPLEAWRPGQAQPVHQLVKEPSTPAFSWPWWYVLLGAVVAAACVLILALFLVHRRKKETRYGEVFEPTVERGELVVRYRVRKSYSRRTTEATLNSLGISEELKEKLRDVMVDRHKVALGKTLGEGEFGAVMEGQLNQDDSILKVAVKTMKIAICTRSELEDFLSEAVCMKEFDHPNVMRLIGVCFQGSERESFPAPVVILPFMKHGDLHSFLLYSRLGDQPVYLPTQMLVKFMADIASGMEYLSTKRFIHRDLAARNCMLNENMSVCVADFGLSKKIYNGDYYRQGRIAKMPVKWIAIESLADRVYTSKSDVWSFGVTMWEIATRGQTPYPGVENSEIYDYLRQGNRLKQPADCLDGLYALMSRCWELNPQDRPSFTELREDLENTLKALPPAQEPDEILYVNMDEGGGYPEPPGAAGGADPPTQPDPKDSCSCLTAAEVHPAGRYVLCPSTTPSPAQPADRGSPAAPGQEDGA

[2] = biological target: T2, Mer (Homo sapiens, UniProt Q12866); assay: LanthaScreen Eu kinase binding assay, Mer; settings: Tracer 236
T2 construct: purchased Life Technologies
T2 sequence (Q12866 21-999): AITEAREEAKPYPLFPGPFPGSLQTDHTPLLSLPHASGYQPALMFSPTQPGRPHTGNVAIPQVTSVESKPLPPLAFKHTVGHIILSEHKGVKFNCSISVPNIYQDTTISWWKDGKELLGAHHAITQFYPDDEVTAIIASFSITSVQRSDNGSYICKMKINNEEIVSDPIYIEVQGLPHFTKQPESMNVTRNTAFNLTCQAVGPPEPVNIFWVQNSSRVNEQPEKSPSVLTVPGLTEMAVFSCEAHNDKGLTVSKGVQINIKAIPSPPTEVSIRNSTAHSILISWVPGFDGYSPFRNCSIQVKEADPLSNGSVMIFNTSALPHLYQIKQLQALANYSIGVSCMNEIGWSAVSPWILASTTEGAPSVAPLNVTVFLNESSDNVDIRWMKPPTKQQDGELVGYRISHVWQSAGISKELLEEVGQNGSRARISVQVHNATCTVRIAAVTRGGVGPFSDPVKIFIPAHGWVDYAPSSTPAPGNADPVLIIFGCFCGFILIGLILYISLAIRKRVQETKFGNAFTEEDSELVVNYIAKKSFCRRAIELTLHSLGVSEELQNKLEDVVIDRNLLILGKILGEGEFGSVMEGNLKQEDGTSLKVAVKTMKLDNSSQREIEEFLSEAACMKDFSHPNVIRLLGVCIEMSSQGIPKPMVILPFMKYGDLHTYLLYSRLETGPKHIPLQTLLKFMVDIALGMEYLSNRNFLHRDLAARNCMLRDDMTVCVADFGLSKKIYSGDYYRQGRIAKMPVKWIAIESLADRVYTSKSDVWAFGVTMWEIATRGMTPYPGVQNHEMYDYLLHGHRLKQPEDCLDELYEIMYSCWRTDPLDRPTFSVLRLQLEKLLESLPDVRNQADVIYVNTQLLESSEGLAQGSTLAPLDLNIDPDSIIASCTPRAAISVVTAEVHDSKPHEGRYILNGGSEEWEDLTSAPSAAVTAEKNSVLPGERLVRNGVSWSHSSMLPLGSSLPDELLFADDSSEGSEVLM

[3] = biological target: T3, Met (Homo sapiens, UniProt P08581); assay: LanthaScreen Eu kinase binding assay, Met; settings: Tracer 236, read-out: cMet kinase binding activity (Kd)
T3 construct: purchased Life Technologies
T3 sequence (P08581 25-1390): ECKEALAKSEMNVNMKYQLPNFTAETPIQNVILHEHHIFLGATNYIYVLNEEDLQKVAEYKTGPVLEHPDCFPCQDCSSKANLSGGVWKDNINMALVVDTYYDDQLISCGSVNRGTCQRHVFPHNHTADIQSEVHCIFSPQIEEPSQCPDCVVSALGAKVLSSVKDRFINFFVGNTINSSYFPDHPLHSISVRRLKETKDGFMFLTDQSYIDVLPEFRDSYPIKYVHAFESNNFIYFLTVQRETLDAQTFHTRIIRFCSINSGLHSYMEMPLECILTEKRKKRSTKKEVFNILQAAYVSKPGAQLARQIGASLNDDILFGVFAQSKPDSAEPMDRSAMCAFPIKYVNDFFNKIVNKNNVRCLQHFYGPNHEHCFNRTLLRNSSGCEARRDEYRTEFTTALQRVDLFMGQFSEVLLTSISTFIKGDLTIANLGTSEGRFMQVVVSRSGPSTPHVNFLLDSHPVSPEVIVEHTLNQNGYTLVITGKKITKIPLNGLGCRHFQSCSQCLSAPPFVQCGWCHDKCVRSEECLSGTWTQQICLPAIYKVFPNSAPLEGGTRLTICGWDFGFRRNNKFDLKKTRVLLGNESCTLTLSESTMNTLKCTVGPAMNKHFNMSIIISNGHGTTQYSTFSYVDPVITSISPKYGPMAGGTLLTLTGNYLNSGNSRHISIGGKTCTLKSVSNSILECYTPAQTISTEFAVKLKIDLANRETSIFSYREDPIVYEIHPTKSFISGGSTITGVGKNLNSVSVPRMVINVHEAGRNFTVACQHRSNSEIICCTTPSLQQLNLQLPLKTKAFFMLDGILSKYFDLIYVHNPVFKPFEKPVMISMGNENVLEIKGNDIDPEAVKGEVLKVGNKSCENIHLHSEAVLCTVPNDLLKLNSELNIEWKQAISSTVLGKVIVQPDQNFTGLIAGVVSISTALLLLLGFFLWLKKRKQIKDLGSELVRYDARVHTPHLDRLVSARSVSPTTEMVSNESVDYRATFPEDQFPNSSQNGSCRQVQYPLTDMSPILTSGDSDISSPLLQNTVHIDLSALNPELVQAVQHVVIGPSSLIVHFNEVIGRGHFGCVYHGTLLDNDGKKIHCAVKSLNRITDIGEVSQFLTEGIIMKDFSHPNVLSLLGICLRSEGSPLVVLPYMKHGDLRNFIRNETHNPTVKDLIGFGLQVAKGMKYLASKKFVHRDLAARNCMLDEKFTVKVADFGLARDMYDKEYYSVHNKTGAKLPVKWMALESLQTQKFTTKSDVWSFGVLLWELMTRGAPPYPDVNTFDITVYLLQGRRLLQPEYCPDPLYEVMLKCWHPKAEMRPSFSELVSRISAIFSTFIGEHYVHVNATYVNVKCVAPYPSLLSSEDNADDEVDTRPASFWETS

Compound	Kd [1]	Kd [2]	Kd [3]
CCOc1cn(-c2cnc(N)nc2)nc1C(=O)Nc1ccc(Oc2ccnc3cc(OC)c(OC(F)(F)F)cc23)cc1F [Compound 242]	≥ 1000 nM	≥ 1000 nM	≥ 1000 nM
COc1cc2c(Oc3ccc(NC(=O)c4nn(-c5cnc(N)cn5)cc4OCC(F)(F)F)nc3)ccnc2cc1OC(C)C [Compound 253]	< 100 nM	< 100 nM	< 100 nM
COc1cc2nccc(Oc3ccc(NC(=O)c4nn(-c5cnc(N)nc5)cc4OC(F)F)nc3)c2cc1OC [Compound 254]	< 100 nM	< 100 nM	≥ 1000 nM
COc1cc2nccc(Oc3ccc(NC(=O)c4nn(-c5cccnc5)cc4OCC4CC4)nc3)c2cc1OC [Compound 255]	< 100 nM	< 100 nM	< 100 nM
COc1cc2c(Oc3ccc(NC(=O)c4nn(-c5cnc(N)nc5)cc4OCC(F)(F)F)nc3)ccnc2cc1OC(C)C [Compound 257]	< 100 nM	< 100 nM	< 100 nM
COc1cc2nccc(Oc3ccc(NC(=O)c4nn(-c5ccc(F)cc5C)cc4OCC4CC4)nc3)c2cc1OC [Compound 258]	< 100 nM	< 100 nM	< 100 nM
COc1cc2nccc(Oc3ccc(NC(=O)c4nn(-c5cnc(N)nc5)cc4OCC(F)(F)F)c(F)c3)c2cc1OC [Compound 259]	< 100 nM	< 100 nM	< 100 nM
COc1cc2nccc(Oc3ccc(NC(=O)c4nn(-c5cnc(N)nc5)cc4OC(C)C)nc3)c2cc1OC [Compound 260]	< 100 nM	< 100 nM	< 100 nM
COc1cc2nccc(Oc3ccc(NC(=O)c4nn(-c5cncnc5C5CC5)cc4OCC(F)(F)F)nc3)c2cc1OC [Compound 261]	< 100 nM	< 100 nM	< 100 nM
COc1cc2nccc(Oc3ccc(NC(=O)c4nn(-c5cnc(N)nc5)cc4OCC4CCC4)nc3)c2cc1OC [Compound 262]	< 100 nM	< 100 nM	< 100 nM
COc1cc2nccc(Oc3ccc(NC(=O)c4nn(-c5ccc(F)cc5Cl)cc4OCC4CC4)nc3)c2cc1OC [Compound 263]	< 100 nM	< 100 nM	< 100 nM
COc1cc2nccc(Oc3ccc(NC(=O)c4nn(-c5ccc(F)cc5OC)cc4OCC4CC4)nc3)c2cc1OC [Compound 264]	< 100 nM	< 100 nM	< 100 nM
COc1cc2nccc(Oc3ccc(NC(=O)c4nn(-c5cnc(N)nc5)cc4OCC4CNC4)nc3)c2cc1OC [Compound 265]	100 to 1000 nM	≥ 1000 nM	≥ 1000 nM
COc1cc2nccc(Oc3ccc(NC(=O)c4nn(-c5ccc(F)cc5N5CCOCC5)cc4OCC4CC4)nc3)c2cc1OC [Compound 266]	< 100 nM	< 100 nM	< 100 nM
COc1cc2nccc(Oc3ccc(NC(=O)c4nn(-c5ccc(F)cc5F)cc4OCC4CC4)nc3)c2cc1OC [Compound 267]	< 100 nM	< 100 nM	< 100 nM
COc1cc2nccc(Oc3ccc(NC(=O)c4nn(-c5ccc(F)cc5F)cc4OCC(F)(F)F)nc3)c2cc1OC [Compound 268]	< 100 nM	< 100 nM	< 100 nM
COc1cc2nccc(Oc3ccc(NC(=O)c4nn(-c5cnc(N)nc5)cc4OCC4COC4)nc3)c2cc1OC [Compound 269]	< 100 nM	< 100 nM	100 to 1000 nM
COc1cc2nccc(Oc3ccc(NC(=O)c4nn(-c5ccc(F)cc5C5CCCC5)cc4OCC4CC4)nc3)c2cc1OC [Compound 270]	100 to 1000 nM	100 to 1000 nM	100 to 1000 nM

Now from value to compound:

Kd [1]	Kd [2]	Kd [3]	Compound
< 100 nM	< 100 nM	< 100 nM	CCOc1cn(Cc2cnccc2C)nc1C(=O)Nc1ccc(Oc2ccnc3cc(OC)c(OC)cc23)cc1F [Compound 226]
< 100 nM	< 100 nM	< 100 nM	CCOc1cn(-c2cnccc2C(C)(O)CO)nc1C(=O)Nc1ccc(Oc2ccnc3cc(OC)c(OC)cc23)cc1F (stereo not drawn) [Compound 227]
< 100 nM	< 100 nM	< 100 nM	CCOc1cn(-c2nccnc2C(C)(O)CO)nc1C(=O)Nc1ccc(Oc2ccnc3cc(OC)c(OC)cc23)cc1F (stereo not drawn) [Compound 229]
< 100 nM	< 100 nM	≥ 1000 nM	CCOc1cn(-c2cnc(N)nc2)nc1C(=O)Nc1ccc(Oc2ccnc3cc(OC(C)C)c(OC)cc23)cc1F [Compound 230]
< 100 nM	< 100 nM	100 to 1000 nM	CCOc1cn(-c2cnccc2CO)nc1C(=O)Nc1ccc(Oc2ccnc3cc(OC(C)C)c(OC)cc23)cc1F [Compound 231]
< 100 nM	< 100 nM	≥ 1000 nM	CCOc1cn(-c2cnccc2CO)nc1C(=O)Nc1ccc(Oc2ccnc3cc(OC)c(OC(F)(F)F)cc23)cn1 [Compound 233]
< 100 nM	< 100 nM	100 to 1000 nM	CCC(C)Oc1cc2nccc(Oc3ccc(NC(=O)c4nn(-c5cccnc5)cc4OCC(F)(F)F)nc3)c2cc1OC (stereo not drawn) [Compound 234]
< 100 nM	< 100 nM	< 100 nM	COc1cc2nccc(Oc3ccc(NC(=O)c4nn(-c5cnc(Cl)cn5)cc4OCC(F)(F)F)nc3)c2cc1OC [Compound 236]
< 100 nM	< 100 nM	< 100 nM	COc1cc2nccc(Oc3ccc(NC(=O)c4nn(-c5cnc(N)nc5)cc4OCC(F)(F)F)nc3)c2cc1OC [Compound 237]
< 100 nM	100 to 1000 nM	100 to 1000 nM	COc1cc2nccc(Oc3ccc(NC(=O)c4nn(-c5cccnc5)cc4OCC4CC4)nc3)c2cc1OC(F)(F)F [Compound 239]
< 100 nM	< 100 nM	< 100 nM	COc1cc2nccc(Oc3ccc(NC(=O)c4nn(-c5cnc(N)nc5)cc4OCC4CC4)nc3)c2cc1OC [Compound 240]
< 100 nM	< 100 nM	≥ 1000 nM	CCOc1cn(-c2cnc(N)nc2)nc1C(=O)Nc1ccc(Oc2ccnc3cc(OC)c(OC(F)(F)F)cc23)cn1 [Compound 241]
< 100 nM	< 100 nM	< 100 nM	COc1cc2c(Oc3ccc(NC(=O)c4nn(-c5cnc(N)nc5)cc4OCC(F)(F)F)c(F)c3)ccnc2cc1OC(C)C [Compound 243]
< 100 nM	< 100 nM	< 100 nM	COc1cc2nccc(Oc3ccc(NC(=O)c4nn(-c5ccc(OC(F)(F)F)cc5Cl)cc4OCC4CC4)nc3)c2cc1OC [Compound 244]
< 100 nM	< 100 nM	≥ 1000 nM	COc1cc2c(Oc3ccc(NC(=O)c4nn(-c5cnc(N)cn5)cc4OCC(F)(F)F)c(F)c3)ccnc2cc1OC(C)C [Compound 246]
< 100 nM	< 100 nM	< 100 nM	COc1cc2nccc(Oc3ccc(NC(=O)c4nn(-c5cnccc5C(F)(F)F)cc4OCC4CC4)nc3)c2cc1OC [Compound 247]
< 100 nM	< 100 nM	< 100 nM	COc1cc2nccc(Oc3ccc(NC(=O)c4nn(-c5cnc(N)cn5)cc4OCC(F)(F)F)nc3)c2cc1OC [Compound 248]
< 100 nM	< 100 nM	< 100 nM	COc1cc2nccc(Oc3ccc(NC(=O)c4nn(-c5cnc(N)cn5)cc4OCC4CC4)nc3)c2cc1OC [Compound 249]
< 100 nM	< 100 nM	≥ 1000 nM	COc1cc2nccc(Oc3ccc(NC(=O)c4nn(-c5cnc(N)cn5)cc4OCC(F)(F)F)c(F)c3)c2cc1OC [Compound 252]
